# Source: patent US10525071B2, “Compositions containing PUFA and methods of use thereof” (MASSACHUSETS INSTITUE OF TECHNOLOGY, priority 2005, dated 2020)
# What was measured:
# [1] = tested on: brain phospholipids; test: Brain phospholipid levels after UMP diet and/or PUFA gavage; type: in vivo, gerbil; settings: for increase in brain total phospholipids over control: DHA 300 mg/kg/day gavage, UMP 0.5% of chow; for brain phospholipid levels: 3 weeks, summary of Table 6
# Procedure: (§1) Cells were homogenized in 100 volumes of ice-cold deionized water using a tissue degrader (Polytron PT 10-35, Kinematica A G, Switzerland); 1 ml of aliquots were then mixed with 3 ml of chloroform+methanol mixture (2:1 v/v) and vortexed vigorously for 30 seconds. After cooling for 1 h on ice, the mixture was mixed sequentially with 3 ml of chloroform+methanol mixture (2:1 v/v) and 1 ml of ice-cold deionized water. The mixture was vortexed vigorously and allowed to stand overnight in the cold room (18 h). The organic (lower) and aqueous (upper) phases of the mixtures were separated by centrifugation (10 min at 4° C.; 1000 g). An aliquot (2 ml) of the upper phase was used for determination of CDP-Choline (see below), and 0.1-0.4 ml aliquots of the lower phase were dried under vacuum for phospholipid analysis. Residues of 0.1 ml aliquots of the lower phase were assayed for total phospholipid content by measuring phosphorus. Residues of 0.4 ml aliquots of the lower phase were reconstituted in 40 μl methanol and subjected to thin-layer chromatography using silica G plates (Adsorbosil Plus-1®, Alltech), and a system consisting of chloroform/ethanol/triethylamine/water (30:34:30:8) as the mobile phase. Phospholipid standards were used to identify the corresponding bands under UV light after the plates were sprayed with 0.1% diphenylhexatriene in petroleum ether. Bands for individual phospholipid classes (PC, PE, SM, PS and PI) were scraped off the plates and extracted into 1 ml of methanol; dried under vacuum; and assayed for phosphorus content. Total phosphorus was determined by comparison with standard curves by using KH2PO4 run with each assay. To each sample was added 0.5 ml of 4.5% HclO4/27% H2SO4 and tubes were heated at 180° C. for 3 h. After cooling to room temperature, 5 ml of the color reagent (a 10:1 dilution of solutions containing 2.5 mg/ml ammonium molybdate, 8.2 mg/ml sodium acetate and 100 mg/ml ascorbic acid respectively) was added and the tubes were incubated for 2 h, 37° C. Absorbance was measured spectrophotometrically at 820 nm. Phospholipid mass was determined by multiplying the phosphorus content by 25.
# Control standard diet (Table 4) consisted of Teklad Global 16% protein rodent diet (Harlan Teklad, Madison, Wis.), which contained 0.1% choline chloride (CC), corresponding to a daily dose of 50 mg/kg/day. UMP was provided as 0.5% UMP.2Na^+ weight/weight, added to the control diet, also prepared by Harlan Teklad, corresponding to 240 mg/kg/day UMP. DHA was administered as 300 mg/kg/day in 200 microliter (mcL)/day 5% Arabic Gum solution, while groups not receiving DHA were administered vehicle (5% Arabic Gum) alone. DHA was provided by Nu-Chek Prep (Elysian, Minn.) and UMP by Numico (Wagenigen, NL).
# Gerbils were anesthetized with ketamine and xylazine (80 and 10 mg/kg bwt, i.p.) and sacrificed by immersing the head into liquid nitrogen for 2 min, followed by decapitation. Brains were immediately and quickly (30 seconds) removed using a bone rongeur and stored at −80° C.
# Frozen brain hemispheres were weighed and homogenized in 100 volumes of ice-cold deionized water using a tissue degrader (Polytron PT 10-35, Kinematica A G, Switzerland), then analyzed as described in Example 1.
# Protein in whole brain homogenate sample was measured for using bicinchoninic acid reagent (Perkin Elmer, Norwalk, Conn., USA). DNA was measured by measuring 460 nm emission of samples on a fluorometer in the presence of bisbenzimidizole, a fluorescent dye known as Hoechst H 33258 (American Hoechst Corporation), which has an excitation maximum at 356 nm and an emission maximum of 458 when bound to DNA.
# Adult gerbils were administered control standard diet (Table 4) with our without 0.5% UMP and/or 300 mg/kg/day DHA, EPA, or AA. Groups not receiving DHA were administered vehicle (5% Arabic Gum) alone.
# [2] = tested on: brain CDP-choline; test: Brain CDP-choline and CDP-ethanolamine levels (HPLC); type: in vivo, gerbil; settings: 28 days; for brain CDP-choline levels: FIG. 5A; for brain CDP-ethanolamine levels: FIG. 5B
# Procedure: FIG. 5. Effects of DHA on brain CDP-choline levels (A) and CDP-ethanolamine levels (B). Groups of 8 gerbils received either a control or a UMP-containing diet, and, by gavage, DHA (in a vehicle of 5% gum Arabic solution) or 5% gum Arabic solution alone for 28 days. On the 29th day brains were harvested and assayed for CDP-choline. Data are presented as means±SEM. Statistical analysis was performed using one- or two-way ANOVA followed by Tukey test. a: P<0.05 when compared with the values for control diet plus vehicle group; b: P<0.05 when compared with values for UMP diet plus vehicle group.
# Aliquots (2 ml) of the upper (aqueous) phase were dried under a vacuum, reconstituted, and injected into an HPLC. The dried samples were reconstituted in 100-200 μl water and were analyzed by HPLC on an anion exchange column (Alltech Hypersil APS-2, […], 250×4.6 mm). CDP-choline was eluted with a linear gradient of buffers A (H3PO4, 1.75 mM, pH 2.9) and B (NaH2PO2, 500 mM, pH 4.5) from 0 to 100% B over period of 30 min. With this system, CDP-choline was resolved from closely co-eluting substances such as UMP in an isocratic system over a period of 40 min. The retention time for CDP-choline was 9.5 min. The column was washed with buffer B at the end of each experiment and every several days to remove retained nucleotides. Individual nucleotide peaks were detected by UV absorption at 280 nm and were identified by comparison with the positions of authentic standards, as well as by the addition of nucleotide standards to samples.
# [3] = tested on: PC-12 cells; test: 14C-choline incorporation into phospholipids in PC-12 cells; type: cell-based; settings: for Phosphatidylcholine (PC) synthesis (incorporation of 14C label into PC): 18 hr pre-incubation with 5 μM fatty acid, FIG. 1
# Procedure: PC-12 cells were maintained in Dulbecco's modified Eagle's medium (DMEM)+10% fetal bovine serum (FBS). For experiments, cells were grown in quintuplicate collagen-coated 35 millimeter (mm) dishes. Cells were incubated for 18 hours (hr) in serum-free DMEM containing 28 μM choline+/−5 micromolar (μM) of DHA, oleic acid, or palmitic acid. Cells were then labeled for 2.5 hr with 0.5 microcurie (μCi)/ml ^14C-choline in serum-free DMEM containing 10-micromolar (μM) choline.
# as §1, with “To each sample was added 0.5 ml of 4.5% HclO4/27% H2SO4 and tubes were heated at 180° C. for 3 h. After cooling to room temperature, 5 ml of the color reagent (a 10:1 dilution of solutions containing 2.5 mg/ml ammonium molybdate, 8.2 mg/ml sodium acetate and 100 mg/ml ascorbic acid respectively) was added and the tubes were incubated for 2 h, 37° C.” left out
# In order to assess the effect of omega-3 fatty acids on phospholipid synthesis, PC-12 cells were incubated with ^14C-labeled choline, following an 18-hour pre-incubation with or without DHA. Incorporation of label into phospholipids was then measured. […]
# To further characterize the stimulation of phospholipid synthesis by omega-3 fatty acids, PC-12 cells were pre-treated with different doses of DHA and exposed to labeled choline as described in Example 1, then incorporation of ^14C-label into phospholipids was measured. […]
# [4] = tested on: SHSY-5Y cells; test: 14C-choline incorporation into phospholipids in SHSY-5Y cells; type: cell-based, human; settings: for phospholipid synthesis: 18 hr with 10 μM fatty acid, FIG. 3A
# Procedure: as §1
# SHSY-5Y cells were grown to near confluency in DMEM+10% FBS in 35 mm dishes. Cells were incubated for 18 hr in serum-free DMEM+1% FBS containing 30 μM choline+/−10 μM of DHA, arachidonic acid, or palmitic acid. Cells were then labeled, and labeled phospholipids were quantified as described for Example 1.
# DHA was dissolved in ethanol to a […] concentration and frozen in 10 microliter aliquots at −80° C. For each experiment, one aliquot was diluted in ethanol to 10 micromolar; the volume giving the desired final solution in incubation medium was mixed with an equal volume of BSA solution (1 gm/ml).
SMILES,"increase in brain total phospholipids over control ([1]; gerbils, 4 weeks) [%]","increase in brain levels of PC ([1]; vs control, Table 5A) [%]","increase in brain levels of PE ([1]; vs control, Table 5A) [%]","increase in brain levels of PI ([1]; vs control, Table 5A) [%]",brain CDP-choline levels [2],brain CDP-ethanolamine levels [2],Phosphatidylcholine (PC) synthesis (incorporation of 14C label into PC) [3],phospholipid synthesis [4],brain phospholipid levels ([1]; gerbils),also measured
"O=c1ccn([C@@H]2O[C@H](COP(=O)(O)O)[C@@H](O)[C@H]2O)c(=O)[nH]1 [UMP, uridine monophosphate]",5,13,29,48,decreased,decreased,,,,"effects on brain phospholipids ([1]; After 1 week of treatment): no significant effects; PtdEtn ([1]; Table 5 part A, gerbil brain): 84 ± 8 nmol/mg prt; increases in all 5 of the phospholipids ([1]; Treatment for 3 weeks, Table 5B): smaller but still significant increases"
"CCCCCCCC/C=C\CCCCCCCC(=O)O [oleic acid, reference compound]",,,,,,,not,,,
"CCCCCCCCCCCCCCCC(=O)O [palmitic acid, reference compound]",,,,,,,not,not,,
"CCC=CCC=CCC=CCC=CCC=CCC=CCCC(=O)O [DHA, 4,7,10,13,16,19-docosahexaenoic acid]",12,22,20,52,decreased,decreased,significantly increased,not,increased,"brain phospholipid, pmol phospholipid per milligrams (mg) protein ([1]; FIG. 4A, gerbils, 4 weeks, ANOVA vs control): statistically significant effect; increase in brain levels of sphingomyelin ([1]; vs control, Table 5A): 24%; synthesis of phospholipids (incorporation of 14C-label) ([3]; different doses of DHA, dose-dependent, FIG. 2): increased"
"CCC=CCC=CCC=CCC=CCC=CCCCC(=O)O [EPA, 5,8,11,14,17-eicosapentaenoic acid]",,,,,,,,,increased,
"CCCCCC=CCC=CCC=CCC=CCCCC(=O)O [arachidonic acid, 5,8,11,14-eicosatetraenoic acid]",,,,,,,,enhanced,increased,"synthesis of total phospholipids, PC, and phosphatidylethanolamine ([4]; range of dosages, dose-dependent, FIG. 3B): increased"
